In US12214076B2, “Drug delivery vehicles for atherosclerosis nanomedicine” (Northwestern University, priority 2019, dated 2025):

Experiments:
[1] = Small angle x-ray scattering (SAXS) of PA nanofibers; type: physicochemical; conditions: 5 mM in PBS
Procedure: Small angle x-ray scattering (SAXS): SAXS characterization of the PA nanofibers was performed at the Advanced Photon Source in the Argonne National Laboratory on beamline 5-ID-D, DuPont-Northwestern-Dow Collaborative Access Team Synchrotron Research Center. Samples were prepared at 5 mM in PBS solution, aged at least 24 hours at 4° C., and analyzed in 1.5 mm quartz capillaries (Charles Supper) at 17 keV with a charged couple device photon detector located 245 cm behind the sample. Scattering intensities were collected using wave vector q range of 0.0024 to 0.40 Å^−1. q represents the scattering vector and is calculated as q=4π sin (θ)/λ, with θ as the scattering angle between the incident beam and detector and […] the X-ray wavelength. The plots of scattering intensity versus q were obtained using NIST software Igor Pro v8. The scattering intensities of PBS were subtracted from the PA samples using the Irena SAS macro, and the resulting plots were fitted using NCNR Analysis macro to a polydisperse core shell cylinder model.

[2] = tested on: J774.2 murine macrophages; test: Nitric oxide production of stimulated macrophages; type: cell-based, mouse; conditions: 24 hours, LPS and stimulated, 32 μM Ac2-26 or epitope equivalent
Procedure: Macrophage culture and characterization: J774.2 murine macrophages (Sigma-Aldrich) were expanded at 4-9×10^5 cells/mL in growth media consisting of Dulbecco's Modified Eagle's Medium (Sigma-Aldrich) containing 4.5 g/L glucose, 2 mM L-glutamine, 10% v/v FBS, 100 U/m penicillin, and 100 μg/mL streptomycin. Cells were passaged using Accutase™ (StemCell Technologies) and used at passage 6-9 for all experiments. The cells were detached with Accutase™ and gentle scraping, counted, and re-suspended in flow cytometry buffer containing 2% w/v bovine serum albumin (BSA, heat shock fraction free of proteases, globulin, and fatty acids, Sigma-Aldrich) and 0.1% w/v sodium azide (Sigma-Aldrich). To minimize non-specific binding of immunoglobin to Fc receptors, macrophages were incubated with anti-mouse CD16/32 antibody (TrueStain FcX™, Biolegend) at 1 μg/1×10^5 cells for 10 minutes at 4° C. APC anti-mouse CD11b antibody or APC Armenian hamster IgG isotype control antibody (Biolegend) were added at 0.4 μg/1×10^5 cells, FPR2 antibody (Novus Biologics) was added at […], and all samples were incubated for 30 minutes at 4° C. The cells were washed once with flow cytometry buffer by centrifugation at 300×g. FPR2 samples were further treated with goat anti-rabbit Alexa Fluor 488 secondary antibody (Invitrogen) at 2 μg/1×10^5 cells for 20 minutes at 4° C., followed by a wash step. Unstained macrophages served as controls and contained 7AAD viability staining solution (Biolegend) at 0.1 μg/1×10^5. All samples were suspended in 4% paraformaldehyde (Electron Microscopy Sciences) in PBS until analysis. […] All samples were analyzed using Attune NxT Acoustic Focusing Cytometer (Thermo Fisher) with at least 2000 events counted per condition.
Therapeutic effects of ApoA1-Ac2-26 PAs: 10% ROS- and MMP-Ac2-26 PAs, as well as Ac2-26 peptide were added together with 10 μg/mL LPS at 32 μM Ac2-26 to macrophages. […] Concerning the quantification of NO, the reducing solution made of KI in acetic acid and water provides an excess of I− that reacts with nitrite yielding ·NO. […]

[3] = TEM characterization of PA nanofibers for diameter and length (Example 3); type: physicochemical; conditions: 30 measurements from three images
Procedure: Samples at 1 mM in PBS were prepared for TEM by plating on copper supports covered with thin carbon foil 400-mesh that were treated with glow discharge. […] Due to the overlapping fibers, automated tools including FiberApp could not be used to analyze the nanofibers. Instead, the TEM images were analyzed manually for nanofiber diameter and length using ImageJ software. Cryogenic TEM of samples was also performed using a JEOL 1230 at 100 kV accelerating voltage and Gatan 831 CCD camera. […] Samples were prepared at 1 mM in PBS blotted once for 3 seconds before plunging into liquid ethane using a Vitrobot Mark III (FEI) vitrification robot.

For “C16-V2A2 (SEQ ID NO: 8)-E2-NH2 [Diluent PA]”, the “SAXS slope of Guinier regime in the low q region” value [1] was −1, the “macrophage activation, nitric oxide production relative to the stimulated control” value [2] was “did not cause significant decreases in nitric oxide production” and the “Diameter (nm) Average” value [3] was 12.3 nm. The “Diameter (nm) Median” value [3] was 12.4 nm, the “Length (nm) Average” value [3] was 3024.4 nm and the “Length (nm) Median” value [3] was 2541.4 nm. For the same substance, the “Diameter (nm) Average” value ([3]; listed as diluent) was 12.3±3.1 nm and the “Length (nm) Median” value ([3]; listed as diluent) was 2541 nm.
